Tests used:
[1] = system: human telomerease (HL60 cell extract); assay: Antitelomerease activity: extension of oligonucleotide TS followed by PCR amplification, with HL60 extract; format: biochemical; settings: read-out: TRAP IC50
How it was run: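 HL60 CHAPS-lysate extract extends TS primer (15 min, 30 °C) with compound at 10, 1, 0.1 and 0.01 µM, followed by 30-cycle PCR with TS and CXext. Products resolved on 12% acrylamide and quantified; % inhibition versus enzyme control and blank, IC50 read from semilog plot.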

[2] = system: A549 cells; assay: Cytotoxic activity on human tumour line A549, neutral red, 96 hours; format: cell-based; settings: Homo sapiens, A549, A549; read-out: Cytotox. A549 IC50
Experimental: The cytotoxic biological activity on human tumour lines is determined according to the following experimental protocol:
The human cell lines A549 are obtained from ATCC (American Type Culture Collection, Rockville, USA). The A549 cells are cultured in a layer in a culture flask in RPMI 1640 medium containing L-glutamine at 2 mM, penicillin 200 U/ml, streptomycin 200 μg/ml and supplemented with 10% heat-inactivated foetal calf serum. The KB cells are cultured in a layer in a culture flask in Dulbelco's medium containing L-glutamine at 2 mM, penicillin 200 U/ml, streptomycin 200 μg/ml and supplemented with 10% heat-inactivated foetal calf serum.
The cells at the exponential growth phase are trypsinized, washed in 1×PBS and are inoculated in 96-well microplates (Costar) in an amount of 4×10^4 cells/ml for A549 and of 1.5×10^4 cells/ml (0.2 ml/well) and then incubated for 96 hours in the presence of variable concentrations of product to be studied (10, 1, 0.1 and 0.01 μM, each point in quadruplicate). 16 hours before the end of the incubation, 0.02% final of neutral red is added to each well. At the end of the incubation, the cells are washed with 1×PBS and lysed with 1% sodium lauryl sulphate. The cellular incorporation of the dye, which reflects cellular growth, is evaluated by spectro-photometry at a wavelength of 540 nm for each sample with the aid of a Dynatech MR5000 reading apparatus.
For each compound concentration tested, the results are expressed as percentage of inhibition of cellular growth and calculated from the untreated control and the culture medium free of cells (blank) according to the following formula: (compound value−blank value/cell control value−blank value)×100.
The concentration of compound inducing a 50% inhibition of growth (IC50) is determined with the aid of a semilogarithmic graphical representation of the inhibition values obtained as a function of each of the compound concentrations tested.
A compound is considered to be active as cytotoxic agent if the concentration inhibiting the growth of the tumour cells tested by 50% is in particular less than 10 μM.

[3] = system: G-quadruplex of oligonucleotide GGGTTAGGGTTAGGGTTAGGG (3.5 repeats of the human telomereic motif); assay: G-quadruplex stabilizing activity, fluorescence Tm (FAM+DABCYL oligonucleotide); format: binding
How it was run: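 FAM/DABCYL-labelled telomeric oligonucleotide (0.2 μM strand) in 10 mM sodium cacodylate pH 7.6 with 0.1 M LiCl (or NaCl) was annealed, then incubated ≥1 h at 20 °C with compound at 1 μM final. Samples were heated 20→80 °C, with excitation at 470 nm and emission at 515/588 nm. Tm is the 515 nm emission midpoint.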

Compound	IC50 [1]	IC50 [2]	G4 delta Tm [3]
Cc1cc(N)c2cc(Nc3nc(Nc4ccc5nc(C)cc(N)c5c4)nc(N4CCN(c5ccc6ccccc6n5)CC4)n3)ccc2n1 [Example 71]	0.35 µM	12.4 µM	–
COc1ccc(CNc2nc(Nc3ccc4nc(C)cc(N)c4c3)nc(Nc3ccc4nc(C)cc(N)c4c3)n2)cc1 [Example 83]	1.2 µM	14 µM	–
Cc1cc(N)c2cc(Nc3nc(NCc4ccc(N(C)C)cc4)nc(Nc4ccc5nc(C)cc(N)c5c4)n3)ccc2n1 [Example 85]	3.9 µM	16 µM	–
Cc1cc(N)c2cc(Nc3nc(Nc4ccc5nc(C)cc(N)c5c4)nc(Nc4ccccn4)n3)ccc2n1 [Example 89]	1.2 µM	20 µM	–
Cc1cc(N)c2cc(Nc3nc(Nc4ccc5nc(C)cc(N)c5c4)nc(Sc4ccccc4)n3)ccc2n1 [Example 117]	–	19.5 µM	–
COC(=O)CSc1nc(Nc2ccc3nc(C)cc(N)c3c2)nc(Nc2ccc3nc(C)cc(N)c3c2)n1 [Example 125]	0.36 µM	–	14.5 °C
CCN(CC)CCSc1nc(Nc2ccc3nc(C)cc(N)c3c2)nc(Nc2ccc3nc(C)cc(N)c3c2)n1 [Example 130]	0.3 µM	–	9 °C
CCN(CCSc1nc(Nc2ccc3nc(C)cc(N)c3c2)nc(Nc2ccc3nc(C)cc(N)c3c2)n1)Cc1ccccc1 [Example 131]	0.91 µM	–	4.5 °C
Cc1cc(N)c2cc(Nc3nc(Nc4ccc5nc(C)cc(N)c5c4)nc(SCCN(C)C)n3)ccc2n1 [Example 132]	0.4 µM	–	12.5 °C
Cc1cc(N(C)C)c2cc(Nc3nc(Nc4ccc5nc(C)cc(N(C)C)c5c4)nc(Sc4ccc5ccccc5n4)n3)ccc2n1 [Example 133, 2,4-bis(4-dimethylamino-2-methylquinolin-6-yl)amino-6-(quinolin-2-yl)thio-[1,3,5]triazine]	0.18 µM	–	25 °C
Cc1cc(N(C)C)c2cc(Nc3nc(Nc4ccc5nc(C)cc(N(C)C)c5c4)nc(-c4ccccc4)n3)ccc2n1 [Example 134, 2,4-bis(4-dimethylamino-2-methylquinolin-6-yl)amino-6-phenyl-[1,3,5]triazine]	–	0.88 µM	–
Cc1cc(N)c2cc(Nc3nc(Nc4ccc5nc(C)cc(N)c5c4)nc(N4CCC(O)C4)n3)ccc2n1 (stereo not drawn) [Example 153]	0.41 µM	–	10 °C
Cc1cc(N)c2cc(Nc3nc(Nc4ccc5nc(C)cc(N)c5c4)nc(N4CCN(CCO)CC4)n3)ccc2n1 [Example 154]	0.2 µM	–	19 °C
Cc1cc(N)c2cc(Nc3nc(Nc4ccc5nc(C)cc(N)c5c4)nc(N4CCC(O)CC4)n3)ccc2n1 [Example 155]	0.39 µM	–	14 °C
COC(C)CNc1nc(Nc2ccc3nc(C)cc(N)c3c2)nc(Nc2ccc3nc(C)cc(N)c3c2)n1 (stereo not drawn) [Example 156]	1.2 µM	–	14.5 °C
Cc1cc(N)c2cc(Nc3nc(NCCO)nc(Nc4ccc5nc(C)cc(N)c5c4)n3)ccc2n1 [Example 158]	0.85 µM	–	8 °C

Compound	IC50 [1]	IC50 [2]	G4 delta Tm [3]
COCC1CCCN1c1nc(Nc2ccc3nc(C)cc(N)c3c2)nc(Nc2ccc3nc(C)cc(N)c3c2)n1 (stereo not drawn) [Example 159]	0.43 µM	–	10.5 °C
Cc1cc(N)c2cc(Nc3nc(Nc4ccc5nc(C)cc(N)c5c4)nc(N4CCCC(O)C4)n3)ccc2n1 (stereo not drawn) [Example 160]	0.36 µM	–	10.5 °C
Cc1cc(N(C)C)c2cc(Nc3nc(Nc4ccc5nc(C)cc(N(C)C)c5c4)nc(N(CCO)CCO)n3)ccc2n1 [Example 161]	1.9 µM	–	12 °C
Cc1cc(N(C)C)c2cc(Nc3nc(Nc4ccc5nc(C)cc(N(C)C)c5c4)nc(N4CCC(O)C4)n3)ccc2n1 (stereo not drawn) [Example 162]	1.7 µM	–	17 °C
Cc1cc(N(C)C)c2cc(Nc3nc(Nc4ccc5nc(C)cc(N(C)C)c5c4)nc(N4CCN(CCO)CC4)n3)ccc2n1 [Example 163]	1.2 µM	–	13 °C
Cc1cc(N(C)C)c2cc(Nc3nc(Nc4ccc5nc(C)cc(N(C)C)c5c4)nc(N4CCC(O)CC4)n3)ccc2n1 [Example 164]	1.6 µM	–	12.5 °C
COC(C)CNc1nc(Nc2ccc3nc(C)cc(N(C)C)c3c2)nc(Nc2ccc3nc(C)cc(N(C)C)c3c2)n1 (stereo not drawn) [Example 165]	1.4 µM	–	6.5 °C
Cc1cc(N(C)C)c2cc(Nc3nc(NCCO)nc(Nc4ccc5nc(C)cc(N(C)C)c5c4)n3)ccc2n1 [Example 167]	1.1 µM	–	6 °C
COCC1CCCN1c1nc(Nc2ccc3nc(C)cc(N(C)C)c3c2)nc(Nc2ccc3nc(C)cc(N(C)C)c3c2)n1 (stereo not drawn) [Example 168]	1.1 µM	–	16.5 °C
Cc1cc(N(C)C)c2cc(Nc3nc(Nc4ccc5nc(C)cc(N(C)C)c5c4)nc(N4CCCC(O)C4)n3)ccc2n1 (stereo not drawn) [Example 169]	0.7 µM	–	16.5 °C
Cc1cc(N(C)C)c2cc(Nc3nc(Nc4ccc5nc(C)cc(N(C)C)c5c4)nc(NC(CO)CO)n3)ccc2n1 [Example 170]	1.3 µM	–	3 °C
Cc1cc(N(C)C)c2cc(Nc3nc(Nc4ccc5nc(C)cc(N(C)C)c5c4)nc(NC(CO)C(=O)O)n3)ccc2n1 (stereo not drawn) [Example 171]	0.49 µM	–	13 °C
Cc1cc(N)c2cc(Nc3nc(Nc4ccc5nc(C)cc(N)c5c4)nc(NC(CO)CO)n3)ccc2n1 [Example 173]	0.62 µM	–	11.5 °C
Cc1cc(N(C)C)c2cc(Nc3nc(Nc4ccc5nc(C)cc(N(C)C)c5c4)nc(NC(C)CO)n3)ccc2n1 (stereo not drawn) [Example 175]	3 µM	–	3 °C
Cc1cc(N(C)C)c2cc(Nc3nc(NCC(O)CO)nc(Nc4ccc5nc(C)cc(N(C)C)c5c4)n3)ccc2n1 (stereo not drawn) [Example 176]	3 µM	–	6 °C

Source: patent publication US6887873B2, “Triazine derivatives and their application as antitelomerase agents” (Aventis Pharma S.A., priority 2001, dated 2005)
